This is an account of results in ChEMBL document CHEMBL5244277, “A review upon medicinal perspective and designing rationale of DPP-4 inhibitors” (Bioorg Med Chem, 2021).

Structures are written as SMILES. ≈ marks a conversion by molar mass, not a printed value.

By IC50 is commonly meant the point on the concentration scale where inhibition reaches its midpoint. In general, Ki refers to a measure of affinity in units of concentration, obtained from inhibition or displacement. In general, half-life refers to how long it takes for the measured level to halve. In general, inhibition refers to the relative decrease from the control value, in per cent. What is called bioavailability is the share of a dose that reaches the circulation, judged against a reference dose that is usually intravenous. Broadly, the AUC is the area under the concentration-time curve, a measure of exposure.

The test system of data set [1] is Mus musculus. Put plainly: Hypoglycemic activity in C57BL/6J mouse assessed as reduction in blood glucose level at 10 mg/kg, po measured at 20 to 80 mins by OGTT analysis. Format: functional. Set-up: scale not given: the % may be the effect or the level left. Conditions: time 20-80 min.
Data set [2] addresses T1, Dipeptidyl peptidase 4 (Homo sapiens, UniProt P27487). Format: cell-based, Caco-2.
Target sequence in this assay (P27487 whole entry): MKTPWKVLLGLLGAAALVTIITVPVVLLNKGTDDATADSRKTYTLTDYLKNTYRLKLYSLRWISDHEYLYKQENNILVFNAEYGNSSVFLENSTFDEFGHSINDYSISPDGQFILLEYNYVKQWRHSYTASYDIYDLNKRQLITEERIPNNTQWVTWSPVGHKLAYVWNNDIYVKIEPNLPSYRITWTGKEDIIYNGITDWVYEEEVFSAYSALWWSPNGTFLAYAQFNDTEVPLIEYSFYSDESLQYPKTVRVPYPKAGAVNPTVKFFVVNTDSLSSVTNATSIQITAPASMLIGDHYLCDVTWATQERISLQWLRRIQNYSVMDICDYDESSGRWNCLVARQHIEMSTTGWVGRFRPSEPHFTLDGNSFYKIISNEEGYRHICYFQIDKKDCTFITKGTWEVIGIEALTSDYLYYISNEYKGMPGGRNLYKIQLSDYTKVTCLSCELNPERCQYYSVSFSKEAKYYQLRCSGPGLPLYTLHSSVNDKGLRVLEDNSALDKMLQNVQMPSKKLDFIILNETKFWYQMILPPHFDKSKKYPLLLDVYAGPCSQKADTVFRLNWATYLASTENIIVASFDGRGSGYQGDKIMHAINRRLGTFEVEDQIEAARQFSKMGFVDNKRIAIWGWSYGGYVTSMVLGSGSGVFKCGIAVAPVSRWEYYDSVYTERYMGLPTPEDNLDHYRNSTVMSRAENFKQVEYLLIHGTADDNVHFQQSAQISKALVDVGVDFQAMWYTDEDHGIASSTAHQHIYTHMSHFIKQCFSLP
Data set [3] has as its system Mus musculus. Description: Hypoglycemic activity in KKAy mouse assessed as reduction in blood glucose level at 10 mg/kg. The data set is classed as ADME, organism-based. Set-up: scale not given: the % may be the effect or the level left. Conditions: in vivo.
A short description of data set [4]: Blood glucose AUC in ICR mouse at 15 mg/kg. Conditions: in vivo.
Data set [5] relates to Mus musculus. Put plainly: Hypoglycemic activity in ICR mouse assessed as reduction in blood glucose level at 1 mg/kg. The data set is classed as ADME, organism-based. The arrangement: scale not given: the % may be the effect or the level left. The following applies: in vivo.
A further data set concerns the target Dipeptidyl peptidase 9 (Homo sapiens, UniProt Q86TI2). Description: Inhibition of DPP-9 (unknown origin).
For the next data set, the target named is Dipeptidyl peptidase 8 (Homo sapiens, UniProt Q6V1X1). Put plainly: Inhibition of DPP-8 (unknown origin).
The species named for data set [6] is Homo sapiens. Put plainly: Selectivity index, ratio of IC50 for DPP-4 (unknown origin) to IC50 for DPP-8 (unknown origin).
Data set [7] is described as follows: Half life in mouse. The data set is classed as ADME, organism-based. The following applies: in vivo.
For data set [8], the system named is Rattus norvegicus. Put plainly: Anti-hyperglycemic activity in STZ-induced diabetic rat model assessed as improvement in glucose tolerance level at 30 mg/kg, po measured on day 10. Format: functional. The following applies: time 10 day.
Data set [9] deals with Rattus norvegicus. Put plainly: Antihyperglycemic activity in STZ-induced diabetic rat model assessed as reduction in blood glucose level at 100 mg/kg, po measured upto 24 hrs. The data set is classed as functional. The arrangement: scale not given: the % may be the effect or the level left.
The test system of data set [10] is Rattus norvegicus. Put plainly: Anti-hyperglycemic activity in STZ-induced diabetic rat model assessed as improvement in glucose tolerance level at 30 mg/kg, po measured on day 15. The data set is classed as functional.
Data set [11] deals with T1, Dipeptidyl peptidase 4. Put plainly: Inhibition of human recombinant DPP-4 at 100 uM using Gly-Pro-Aminomethylcoumarin as substrate by Spectra max fluorometer analysis relative to control.
Target sequence in this assay (P27487 whole entry, looked up): as the sequence (P27487 whole entry) above
Data set [12] addresses T1, Dipeptidyl peptidase 4. Description: Inhibition of DPP-4 (unknown origin) at 100 uM relative to control.
Target sequence in this assay (P27487 whole entry, looked up): as the sequence (P27487 whole entry) above
Data set [13] is filed under the species Homo sapiens. Put plainly: Selectivity index, ratio of IC50 for human recombinant DPP-4 to IC50 for human recombinant DPP-8.
The species entered for data set [14] is Homo sapiens. Put plainly: Selectivity index, ratio of IC50 for human recombinant DPP-4 to IC50 for human recombinant DPP-9.
The target in data set [15] is T1, Dipeptidyl peptidase 4. Description: Inhibition of human recombinant DPP-4 using H-Gly-Pro-aminomethylcoumarin as substrate.
Target sequence in this assay (P27487 whole entry): as above
In data set [16] the target is T1, Dipeptidyl peptidase 4. Description: Inhibition of human recombinant DPP-4 using H-Gly-Pro-aminomethylcoumarin as substrate at 100 uM relative to control.
Target sequence in this assay (P27487 whole entry, looked up): as the sequence (P27487 whole entry) above
The target of data set [17] is T2, Voltage-gated inwardly rectifying potassium channel KCNH2 (Homo sapiens, UniProt Q12809). Put plainly: Inhibition of hERG channel by patch clamp assay. Format: toxicity. Background: The hERG channel carries a current that helps repolarise heart muscle cells.
Data set [18] is described as follows: Half life in ICR mouse at 15 mg/kg. The following applies: in vivo. Format: ADME, organism-based.
For data set [19], the target named is T2, Voltage-gated inwardly rectifying potassium channel KCNH2. Put plainly: Inhibition of hERG by thallium flux assay. The data set is classed as toxicity.
The nature of data set [20]: Oral bioavailability in ICR mouse at 15 mg/kg. The data set is classed as ADME, organism-based. Conditions: in vivo.
Data set [21] can be described thus: Antioxidant activity assessed as DPPH radical scavenging activity. The data set is classed as functional. (DPPH is a stable violet radical that fades when it is reduced.)
Data set [22] in a line: AUC in C57BL/6J mouse at 20 mg/kg, po. Conditions: in vivo. The arrangement: dose 20 mg/kg, route po. Format: ADME, organism-based.
Data set [23] addresses T1, Dipeptidyl peptidase 4.
Target sequence in this assay (P27487 whole entry): as above
For data set [24], the target named is T1, Dipeptidyl peptidase 4. Description: Inhibition of DPP4 (unknown origin) using Gly-Pro-AMC as substrate incubated for 30 mins by spectroscopic analysis.
Target sequence in this assay (P27487 whole entry): as above
Data set [25] deals with Mus musculus. Description: Antidiabetic activity in ICR mouse assessed as decrease in AUC of glucose at 10 mg/kg, po. Set-up: scale not given: the % may be the effect or the level left. The data set is classed as functional.
For data set [26], the target named is T1, Dipeptidyl peptidase 4. The source holds these as a separate data set.
Target sequence in this assay (P27487 whole entry): as above
The test system of data set [27] is Mus musculus. Description: Antidiabetic activity in ICR mouse assessed as decrease in AUC of glucose at 3 mg/kg, po. Format: functional. Set-up: scale not given: the % may be the effect or the level left.

T2 sequence (Q12809 whole entry): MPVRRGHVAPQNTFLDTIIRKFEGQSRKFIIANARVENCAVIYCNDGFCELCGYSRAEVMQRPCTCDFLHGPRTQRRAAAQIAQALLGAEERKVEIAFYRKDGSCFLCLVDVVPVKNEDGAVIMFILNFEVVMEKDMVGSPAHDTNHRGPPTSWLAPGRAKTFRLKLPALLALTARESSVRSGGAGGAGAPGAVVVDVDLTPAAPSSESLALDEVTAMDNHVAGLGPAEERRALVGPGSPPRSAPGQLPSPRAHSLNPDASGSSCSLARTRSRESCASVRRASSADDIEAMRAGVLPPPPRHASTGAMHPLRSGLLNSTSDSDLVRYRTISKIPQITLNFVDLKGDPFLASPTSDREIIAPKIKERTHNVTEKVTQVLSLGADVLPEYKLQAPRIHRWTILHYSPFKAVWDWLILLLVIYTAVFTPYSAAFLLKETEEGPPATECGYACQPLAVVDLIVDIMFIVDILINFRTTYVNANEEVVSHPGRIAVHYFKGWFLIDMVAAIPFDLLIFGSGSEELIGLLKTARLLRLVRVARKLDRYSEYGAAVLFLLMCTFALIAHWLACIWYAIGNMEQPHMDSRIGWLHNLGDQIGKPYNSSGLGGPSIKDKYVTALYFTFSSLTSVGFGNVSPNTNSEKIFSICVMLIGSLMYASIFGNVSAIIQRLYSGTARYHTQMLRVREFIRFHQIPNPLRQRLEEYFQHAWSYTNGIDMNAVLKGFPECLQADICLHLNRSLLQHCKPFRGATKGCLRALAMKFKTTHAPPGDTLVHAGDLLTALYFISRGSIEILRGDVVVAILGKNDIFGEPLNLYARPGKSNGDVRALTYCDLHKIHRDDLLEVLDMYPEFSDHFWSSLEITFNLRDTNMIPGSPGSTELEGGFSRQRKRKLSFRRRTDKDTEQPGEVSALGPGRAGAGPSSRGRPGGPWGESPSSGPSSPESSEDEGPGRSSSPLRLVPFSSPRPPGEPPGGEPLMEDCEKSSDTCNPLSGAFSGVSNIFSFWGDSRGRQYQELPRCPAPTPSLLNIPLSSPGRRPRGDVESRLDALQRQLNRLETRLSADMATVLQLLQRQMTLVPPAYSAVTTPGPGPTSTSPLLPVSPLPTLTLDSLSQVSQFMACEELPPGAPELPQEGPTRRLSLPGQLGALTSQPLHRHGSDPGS
Sequence of Dipeptidyl peptidase 9 (Q86TI2 whole entry): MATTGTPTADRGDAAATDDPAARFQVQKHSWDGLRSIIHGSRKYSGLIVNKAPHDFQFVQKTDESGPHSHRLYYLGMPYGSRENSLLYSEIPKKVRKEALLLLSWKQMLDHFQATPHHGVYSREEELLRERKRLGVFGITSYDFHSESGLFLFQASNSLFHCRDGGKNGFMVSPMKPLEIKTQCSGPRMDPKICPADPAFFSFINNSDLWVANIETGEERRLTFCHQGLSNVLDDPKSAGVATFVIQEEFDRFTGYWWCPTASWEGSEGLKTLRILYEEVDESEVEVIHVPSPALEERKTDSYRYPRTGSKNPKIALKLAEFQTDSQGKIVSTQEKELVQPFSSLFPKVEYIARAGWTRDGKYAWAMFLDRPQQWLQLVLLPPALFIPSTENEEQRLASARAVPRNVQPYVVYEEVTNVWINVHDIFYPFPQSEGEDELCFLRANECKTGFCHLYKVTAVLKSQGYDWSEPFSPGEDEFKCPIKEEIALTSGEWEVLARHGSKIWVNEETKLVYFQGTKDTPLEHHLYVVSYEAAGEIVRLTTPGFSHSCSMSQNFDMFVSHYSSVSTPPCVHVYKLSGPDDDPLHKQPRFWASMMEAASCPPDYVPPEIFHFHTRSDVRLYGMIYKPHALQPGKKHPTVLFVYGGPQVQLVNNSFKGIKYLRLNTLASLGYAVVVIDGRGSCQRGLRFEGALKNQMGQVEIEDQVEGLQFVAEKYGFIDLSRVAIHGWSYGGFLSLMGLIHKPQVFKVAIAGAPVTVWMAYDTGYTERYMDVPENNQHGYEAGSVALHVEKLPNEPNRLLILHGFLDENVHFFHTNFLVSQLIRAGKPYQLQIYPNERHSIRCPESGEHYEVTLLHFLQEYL
Sequence of Dipeptidyl peptidase 8 (Q6V1X1 whole entry): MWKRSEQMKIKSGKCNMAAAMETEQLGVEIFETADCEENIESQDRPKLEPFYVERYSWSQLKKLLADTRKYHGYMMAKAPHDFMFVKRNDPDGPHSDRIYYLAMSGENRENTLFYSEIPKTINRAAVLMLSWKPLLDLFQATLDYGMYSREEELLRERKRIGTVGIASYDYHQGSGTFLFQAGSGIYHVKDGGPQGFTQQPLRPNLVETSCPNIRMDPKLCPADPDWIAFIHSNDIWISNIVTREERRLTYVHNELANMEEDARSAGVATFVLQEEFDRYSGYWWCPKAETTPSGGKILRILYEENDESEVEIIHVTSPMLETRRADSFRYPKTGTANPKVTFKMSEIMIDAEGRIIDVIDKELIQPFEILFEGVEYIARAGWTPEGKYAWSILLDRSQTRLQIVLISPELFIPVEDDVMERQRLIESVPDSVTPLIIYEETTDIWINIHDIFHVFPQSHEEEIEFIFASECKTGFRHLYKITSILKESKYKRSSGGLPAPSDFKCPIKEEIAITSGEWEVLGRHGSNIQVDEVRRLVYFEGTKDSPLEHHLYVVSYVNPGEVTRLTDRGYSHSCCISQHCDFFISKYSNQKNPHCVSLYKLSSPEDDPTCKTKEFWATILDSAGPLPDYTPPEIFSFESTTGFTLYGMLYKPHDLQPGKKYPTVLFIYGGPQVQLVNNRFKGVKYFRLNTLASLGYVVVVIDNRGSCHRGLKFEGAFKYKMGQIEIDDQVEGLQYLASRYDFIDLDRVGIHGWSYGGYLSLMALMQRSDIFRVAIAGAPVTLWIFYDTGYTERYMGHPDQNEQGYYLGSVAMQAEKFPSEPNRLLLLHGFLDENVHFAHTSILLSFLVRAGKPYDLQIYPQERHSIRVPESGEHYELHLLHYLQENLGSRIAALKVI

In the case of `CN1CCN(S(=O)(=O)c2cccc(C(=O)NC[C@@H]3CCCN3C(=O)C[C@H](N)[C@H]3CCc4cc(F)c(F)cc43)c2)CC1`, the Activity in the data set on Mus musculus [1] was determined as 34%. On Dipeptidyl peptidase 4 [2], this compound gave an IC50 of 1.1 nM.

`N#C[C@@H]1CCCN1C(=O)CNC12CC3CC(CC(O)(C3)C1)C2` [VILDAGLIPTIN]: the Activity in the data set with Mus musculus [3] stood at 30%; in the data set on Mus musculus [5], 24.1%. In data set [4], this compound gave a glucose AUC of 904 mmol/L/min.

With `Cc1nc2cc(-c3ccccc3Cl)nn2c(-c2ccc(Cl)cc2Cl)c1CO`, the Ki at Dipeptidyl peptidase 9 and on Dipeptidyl peptidase 8 was over 30000 nM each time.

Turning to `Cc1nc2cc(-c3ccccc3)nn2c(-c2ccc(Cl)cc2Cl)c1CO`, the Ki on Dipeptidyl peptidase 9 and at Dipeptidyl peptidase 8 was over 30000 nM in each case.

`N[C@@H](CC(=O)N1CCC[C@H]1CNC(=O)c1cc(S(=O)(=O)N2CCC2)c(F)cc1F)[C@H]1CCc2cc(F)c(F)cc21` came in with an IC50 at Dipeptidyl peptidase 4 [2] of 0.87 nM.

Regarding `N#C[C@@H]1CCCN1C(=O)[C@@H](N)CCC(=O)N1CCn2c(nnc2C(F)(F)F)C1.O=C(O)C(F)(F)F`, in the data set filed under Homo sapiens [6], the Ratio IC50 was over 1000. In data set [7], this compound registered a half-life of under 24 h.

For the compound `O=C(CN1CCN(c2ccnc3cc(Cl)ccc23)CC1)N1CCCC1`, the Activity in the data set on Rattus norvegicus [8] came to 14.6%; with Rattus norvegicus [9], 25.5%; with Rattus norvegicus [10] it was 26.4%.

As for `CS(=O)(=O)c1cccc(C(=O)NC[C@@H]2CCCN2C(=O)C[C@H](N)[C@H]2CCc3cc(F)c(F)cc32)c1`, the Activity with Mus musculus [1] was determined as 40%. The compound also had an IC50 on Dipeptidyl peptidase 4 [2] of 1.06 nM.

For the compound `CCOC(=O)c1ccc2cc(OCC(=O)N3CCOCC3)c(=O)oc2c1`, the inhibition at Dipeptidyl peptidase 4 [11] is 1.3%.

`COC(=O)C1=C(C)N=C2CC(C)C3(Oc4c(Cl)c(OC)cc(OC)c4C3=O)C(O)=C2C1c1cc2cccc3c2n(c1=O)CCC3` (stereo not drawn) returned an inhibition at Dipeptidyl peptidase 4 [12] of over 50%.

Turning to `O=C(CNc1cc2ccc3ccccc3c2oc1=O)Nc1ccc(Cl)cc1`, the inhibition on Dipeptidyl peptidase 4 [11] came out at 26.7%.

As for `Cc1ccccc1-c1nc2ccccn2c1CN`, the Ratio IC50 in the data set listed under Homo sapiens [13] and in the data set listed under Homo sapiens [14] was over 340 each time. Further, the IC50 at Dipeptidyl peptidase 4 [15] was 290 nM. The inhibition on Dipeptidyl peptidase 4 [16] was found to be 59%.

As to `O=C(CN1CCN(c2ccccn2)CC1)N1CCSC1`, the Activity with Rattus norvegicus [9] amounted to 18.4%.

For `N#C[C@@H]1C[C@H](F)CN1C(=O)[C@@H](N)Cc1cc(Cl)c(Cl)cc1Cl`, the IC50 was over 40000 nM in data set [17] and 97700 nM in [19]. This compound also gave a half-life in [18] of 2.03 h. This compound showed a glucose AUC in data set [4] of 795 mmol/L/min. The compound also showed a bioavailability in data set [20] of 53.2%.

`O=C1O[C@H]([C@@H](O)CO)C(O)=C1O` [ASCORBIC ACID]: in [21], the IC50 was found to be 34.69 µg/mL (≈ 197 µM).

`N#Cc1ccc(C(=O)NCCCC(=O)N2CCC[C@H]2C#N)cc1` yielded an area under the curve (AUC) in data set [22] of 54000 ng·h/mL.

On to `Cc1ccc(NC(=O)CNc2cc3ccc4ccccc4c3oc2=O)cc1`, for which the inhibition at Dipeptidyl peptidase 4 [11] was determined as 26.7%.

In turn, `Cc1c(-c2cc(S(=O)(=O)c3ccccc3)n[nH]2)c(=O)n(C)n1C` showed a 50% inhibitory concentration (IC50) against Dipeptidyl peptidase 4 [23] of under 15 nM.

On to `COC(=O)c1cn([C@@H]2CC[C@H](C(=O)N3CCC(F)(F)C3)C2)nn1`, for which half-maximal inhibition at Dipeptidyl peptidase 4 [24] (IC50) required 720 nM.

For the compound `CC#CCn1c(N2CCC[C@@H](N)C2)cc(=O)n(Cc2cn(CCC(=O)OC)nn2)c1=O`, the Activity turned out to be 40.4% in the data set on Mus musculus [25] and 31.4% in the data set on Mus musculus [27]. In addition, the IC50 on Dipeptidyl peptidase 4 [26] amounted to 64 nM.

On to `N[C@@H](CC(=O)N1CCC[C@H]1CNC(=O)c1ccc(F)c(S(N)(=O)=O)c1)[C@H]1CCc2cc(F)c(F)cc21`, for which inhibition against Dipeptidyl peptidase 4 [2] was half-maximal at 0.87 nM (IC50).

On Dipeptidyl peptidase 4 [2], `CCN(CC)S(=O)(=O)c1cc(C(=O)NC[C@@H]2CCCN2C(=O)C[C@H](N)[C@H]2CCc3cc(F)c(F)cc32)c(F)cc1F` came in with an IC50 of 0.87 nM.

`Cn1c(=O)cc(N2CCC[C@@H](N)C2)n(Cc2ccccc2C#N)c1=O` [ALOGLIPTIN]: the Activity in the data set with Mus musculus [25] is recorded as 42.5%.

`N#C[C@@H]1[C@@H]2CCC[C@@H]2CN1C(=O)[C@@H](N)Cc1cc(F)c(F)cc1F`: the IC50 in data set [17] was over 40000 nM. Also, the half-life in data set [18] was 2.74 h. Further, in [4], the glucose AUC was 847 mmol/L/min. Also, in data set [19] (human), the IC5 worked out at 55.3 µM. Besides, the bioavailability in data set [20] was found to be 22.8%.

Turning to `COc1ccc(CCNC(=S)N/C=C2\C(=O)Oc3ccccc3C2=O)cc1OC`, the inhibition on Dipeptidyl peptidase 4 [12] is over 50%.

As for `CCN(CC)S(=O)(=O)c1cccc(C(=O)NC[C@@H]2CCCN2C(=O)C[C@H](N)[C@H]2CCc3cc(F)c(F)cc32)c1`, at Dipeptidyl peptidase 4 [2], it took 0.87 nM to reach half-maximal inhibition (IC50).
